Laboratory results taken from ChEMBL document CHEMBL4033663, “Design, combinatorial synthesis and biological evaluations of novel 3-amino-1'-((1-aryl-1H-1,2,3-triazol-5-yl)methyl)-2'-oxospiro[benzo[a] pyrano[2,3-c]phenazine-1,3'-indoline]-2-carbonitrile antitumor hybrid molecules” (Eur J Med Chem, 2017).

Assays:
[1] = system: L02; experiment: Antiproliferative activity against human L02 cells after 48 hrs by MTT assay; assay type: cell-based; details: L02, 48 h
[2] = system: HUVEC; experiment: Antiproliferative activity against human HUVEC cells after 48 hrs by MTT assay; assay type: cell-based
[3] = system: A549; experiment: Antiproliferative activity against human A549 cells after 48 hrs by MTT assay; assay type: functional, cell-based; details: A549, 48 h
[4] = system: HCT-116; experiment: Antiproliferative activity against human HCT116 cells after 48 hrs by MTT assay; assay type: functional, cell-based; details: HCT-116, 48 h
[5] = system: MCF7; experiment: Antiproliferative activity against human MCF7 cells after 48 hrs by MTT assay; assay type: functional, cell-based; details: MCF7, 48 h
[6] = system: HepG2; experiment: Antiproliferative activity against human HepG2 cells after 48 hrs by MTT assay; assay type: functional, cell-based; details: HepG2, 48 h

N#CC1=C(N)Oc2c(c3nc4ccccc4nc3c3ccccc23)C12C(=O)N(Cc1cnnn1-c1ccccc1Br)c1ccccc12 (configuration not stated)
IC50 [1]: > 50 µM | IC50 [2]: > 50 µM | IC50 [3]: > 50 µM | IC50 [4]: > 50 µM | IC50 [5]: > 50 µM | IC50 [6]: > 50 µM

CCOc1ccc(-n2nncc2CN2C(=O)C3(C(C#N)=C(N)Oc4c(N)cc5nc6ccccc6nc5c43)c3ccccc32)cc1 (configuration not stated)
IC50 [1]: > 50 µM | IC50 [2]: > 50 µM | IC50 [3]: > 50 µM | IC50 [4]: > 50 µM | IC50 [5]: 26.8 µM | IC50 [6]: > 50 µM

Cc1cc(C)cc(-n2nncc2CN2C(=O)C3(C(C#N)=C(N)Oc4c(N)cc5nc6ccccc6nc5c43)c3ccccc32)c1 (configuration not stated)
IC50 [1]: > 50 µM | IC50 [2]: > 50 µM | IC50 [3]: 31.2 µM | IC50 [4]: > 50 µM | IC50 [5]: > 50 µM | IC50 [6]: > 50 µM

N#CC1=C(N)Oc2c(N)cc3nc4ccccc4nc3c2C12C(=O)N(Cc1cnnn1-c1ccccc1Cl)c1ccccc12 (configuration not stated)
IC50 [1]: > 50 µM | IC50 [2]: > 50 µM | IC50 [3]: 29.8 µM | IC50 [4]: > 50 µM | IC50 [5]: 34.4 µM | IC50 [6]: 33.5 µM

CCOc1ccc(-n2nncc2CN2C(=O)C3(C(C#N)=C(N)Oc4c3c3nc5ccccc5nc3c3ccccc43)c3ccccc32)cc1 (configuration not stated)
IC50 [1]: > 50 µM | IC50 [2]: > 50 µM | IC50 [3]: 25.2 µM | IC50 [4]: > 50 µM | IC50 [5]: > 50 µM | IC50 [6]: > 50 µM

N#CC1=C(N)Oc2c(c3nc4ccccc4nc3c3ccccc23)C12C(=O)N(Cc1cnnn1-c1cc(Cl)ccc1Cl)c1ccccc12 (configuration not stated)
IC50 [1]: > 50 µM | IC50 [2]: > 50 µM | IC50 [3]: > 50 µM | IC50 [4]: > 50 µM | IC50 [5]: > 50 µM | IC50 [6]: > 50 µM

N#CC1=C(N)Oc2c(c3nc4ccccc4nc3c3ccccc23)C12C(=O)N(Cc1cnnn1-c1cccc(Cl)c1)c1ccccc12 (configuration not stated)
IC50 [1]: 35.2 µM | IC50 [2]: > 50 µM | IC50 [3]: 32.6 µM | IC50 [4]: > 50 µM | IC50 [5]: 43.6 µM | IC50 [6]: > 50 µM

N#CC1=C(N)Oc2c(N)cc3nc4ccccc4nc3c2C12C(=O)N(Cc1cnnn1-c1cc(Cl)ccc1Cl)c1ccccc12 (configuration not stated)
IC50 [1]: > 50 µM | IC50 [2]: > 50 µM | IC50 [3]: 10.9 µM | IC50 [4]: > 50 µM | IC50 [5]: 33.2 µM | IC50 [6]: 33.1 µM

CC(=O)Nc1ccc(-n2nncc2CN2C(=O)C3(C(C#N)=C(N)Oc4c3c3nc5ccccc5nc3c3ccccc43)c3ccccc32)cc1 (configuration not stated)
IC50 [1]: > 50 µM | IC50 [2]: > 50 µM | IC50 [3]: > 50 µM | IC50 [4]: > 50 µM | IC50 [5]: > 50 µM | IC50 [6]: > 50 µM

N#CC1=C(N)Oc2c(c3nc4ccccc4nc3c3ccccc23)C12C(=O)N(Cc1cnnn1-c1ccc(N)cc1)c1ccccc12 (configuration not stated)
IC50 [1]: > 50 µM | IC50 [2]: > 50 µM | IC50 [3]: > 50 µM | IC50 [4]: 45.2 µM | IC50 [5]: > 50 µM | IC50 [6]: > 50 µM

N#CC1=C(N)Oc2c(c3nc4ccccc4nc3c3ccccc23)C12C(=O)N(Cc1cnnn1-c1ccc(Cl)cc1)c1ccccc12 (configuration not stated)
IC50 [1]: > 50 µM | IC50 [2]: > 50 µM | IC50 [3]: > 50 µM | IC50 [4]: > 50 µM | IC50 [5]: > 50 µM | IC50 [6]: > 50 µM

COc1ccc(-n2nncc2CN2C(=O)C3(C(C#N)=C(N)Oc4c3c3nc5ccccc5nc3c3ccccc43)c3ccccc32)cc1 (configuration not stated)
IC50 [1]: > 50 µM | IC50 [2]: > 50 µM | IC50 [3]: > 50 µM | IC50 [4]: > 50 µM | IC50 [5]: > 50 µM | IC50 [6]: > 50 µM

Cc1ccc(-n2nncc2CN2C(=O)C3(C(C#N)=C(N)Oc4c3c3nc5ccccc5nc3c3ccccc43)c3ccccc32)cc1C (configuration not stated)
IC50 [1]: > 50 µM | IC50 [2]: > 50 µM | IC50 [3]: > 50 µM | IC50 [4]: > 50 µM | IC50 [5]: > 50 µM | IC50 [6]: > 50 µM

Cc1cc(C)cc(-n2nncc2CN2C(=O)C3(C(C#N)=C(N)Oc4c3c3nc5ccccc5nc3c3ccccc43)c3ccccc32)c1 (configuration not stated)
IC50 [1]: > 50 µM | IC50 [2]: > 50 µM | IC50 [3]: > 50 µM | IC50 [4]: > 50 µM | IC50 [5]: > 50 µM | IC50 [6]: > 50 µM

N#CC1=C(N)Oc2c(N)cc3nc4ccccc4nc3c2C12C(=O)N(Cc1cnnn1-c1c(F)cccc1F)c1ccccc12 (configuration not stated)
IC50 [1]: > 50 µM | IC50 [2]: > 50 µM | IC50 [3]: > 50 µM | IC50 [4]: > 50 µM | IC50 [5]: > 50 µM | IC50 [6]: > 50 µM

N#CC1=C(N)Oc2c(N)cc3nc4ccccc4nc3c2C12C(=O)N(Cc1cnnn1-c1ccc(Cl)cc1)c1ccccc12 (configuration not stated)
IC50 [1]: > 50 µM | IC50 [2]: > 50 µM | IC50 [3]: > 50 µM | IC50 [4]: > 50 µM | IC50 [5]: > 50 µM | IC50 [6]: > 50 µM

Cc1ccc(Cl)cc1-n1nncc1CN1C(=O)C2(C(C#N)=C(N)Oc3c2c2nc4ccccc4nc2c2ccccc32)c2ccccc21 (configuration not stated)
IC50 [1]: > 50 µM | IC50 [2]: > 50 µM | IC50 [3]: > 50 µM | IC50 [4]: > 50 µM | IC50 [5]: > 50 µM | IC50 [6]: > 50 µM

Cc1ccccc1-n1nncc1CN1C(=O)C2(C(C#N)=C(N)Oc3c(N)cc4nc5ccccc5nc4c32)c2ccccc21 (configuration not stated)
IC50 [1]: > 50 µM | IC50 [2]: > 50 µM | IC50 [3]: 31.7 µM | IC50 [4]: > 50 µM | IC50 [5]: > 50 µM | IC50 [6]: > 50 µM

N#CC1=C(N)Oc2c(N)cc3nc4ccccc4nc3c2C12C(=O)N(Cc1cnnn1-c1ccc(F)c(Cl)c1)c1ccccc12 (configuration not stated)
IC50 [1]: > 50 µM | IC50 [2]: > 50 µM | IC50 [3]: 43.4 µM | IC50 [4]: > 50 µM | IC50 [5]: 17.8 µM | IC50 [6]: > 50 µM

Cc1ccc(Cl)cc1-n1nncc1CN1C(=O)C2(C(C#N)=C(N)Oc3c(N)cc4nc5ccccc5nc4c32)c2ccccc21 (configuration not stated)
IC50 [1]: > 50 µM | IC50 [2]: > 50 µM | IC50 [3]: > 50 µM | IC50 [4]: 37.2 µM | IC50 [5]: 43.5 µM | IC50 [6]: 17.3 µM

Cc1ccc(C)c(-n2nncc2CN2C(=O)C3(C(C#N)=C(N)Oc4c3c3nc5ccccc5nc3c3ccccc43)c3ccccc32)c1 (configuration not stated)
IC50 [1]: > 50 µM | IC50 [2]: > 50 µM | IC50 [3]: > 50 µM | IC50 [4]: > 50 µM | IC50 [5]: > 50 µM | IC50 [6]: > 50 µM

COc1ccccc1-n1nncc1CN1C(=O)C2(C(C#N)=C(N)Oc3c2c2nc4ccccc4nc2c2ccccc32)c2ccccc21 (configuration not stated)
IC50 [1]: > 50 µM | IC50 [2]: > 50 µM | IC50 [3]: > 50 µM | IC50 [4]: > 50 µM | IC50 [5]: > 50 µM | IC50 [6]: > 50 µM
